Experimental findings from patent US11723920B2, “Method for treating cancer with a nanoformulation” (Imam Abdulrahman Bin Faisal University, priority 2019, dated 2023) are described below.

Each structure is given as a SMILES string.

The subject of the assay is human mammary adenocarcinoma cell line, MCF-7. Briefly: Cell viability MTT assay on MCF-7 cells. The format is cell-based. To be noted: MCF-7, 48 h. (In general: Formazan colour is commonly taken as a measure of viable cells.)

Description: Cells were maintained in DMEM (Dulbecco's Modified Eagle Medium) (Gibco, life technologies) supplemented with 10% heat inactivated fetal bovine serum (HI-FBS) (Gibco, life technology), 1% Penicillin Streptomycin (100×— Gibco, life technology), and 1% MEM NEAA (MEM non-essential amino acids) (100×— Gibco, life technology). Cells were kept in a humidified incubator at 37° C. with 5% CO2. For the experimental setup, MCF-7 cells were seeded on a 96-well plate at a density of 20,000 cells/well. On the next day, cells were shifted to the starve media (0.5% HI-FBS containing media) for 24 h before treatment.
For groups B, C, E, and F, treatment concentrations were as follows: 0.025, 0.05, 0.1, and 0.5 mg/mL. […] Therefore, treatment concentrations for group A were as follows: 0.0084, 0.0168, 0.0336, and 0.168 mg/mL. Treatment concentrations used in this experiment for group D were as follows: 0.001125, 0.00225, 0.0045, 0.0225 mg/mL.
The viability of cells was tested using 3-(4,5-dimethylthiazol-2-yl)-2,5-diphenyltetrazolium bromide (MTT) assay. It is based on the ability to reduce MTT relative to formazan crystals. […] The change in color intensity was measured at 570 nm wavelength using SYNERGY-neo2 BioTek ELISA reader. […] The reading of each triplicate was averaged and subtracted from the averaged MTT background control reading. […]

Consider `N.N.[Cl][Pt][Cl]` [cisplatin], for which the “effect on cell viability (in words)” value is on record as “significantly reduced cell viability”.
